Data from patent US11052092B2, “N-{[2-(piperidin-1-yl)phenyl](phenyl)methyl}-2-(3-oxo-3,4-dihydro-2H-1,4-benzoxazin-7-yl)acetamide derivatives and related compounds as ROR-gamma modulators for treating autoimmune diseases” (Genfit, priority 2017, dated 2021).
Structures can show the parent of a compound that is named as a salt.

`Cc1ccc(C(NC(=O)Cc2ccc3c(c2)CS(=O)(=O)N3CC2CCOCC2)c2ccc(C)o2)c(Br)c1` (centres unmarked) (as salt: HCl) [Cpd. 68, N-[(2-bromo-4-methylphenyl)(5-methylfuran-2-yl)methyl]-2-[1-(oxan-4-ylmethyl)-2,2-dioxo-1,3-dihydro-2,1-benzothiazol-5-yl]acetamide] gave a melting point of 92 °C. Molecule `Cc1ccc(C(NC(=O)Cc2ccc3c(c2)CS(=O)(=O)C3)c2ccc(C)o2)c(N2CCCCC2)c1` (centres unmarked) (as salt: HCl) [Cpd. 78, 2-(2,2-dioxo-1,3-dihydro-2-benzothiophen-5-yl)-N-{[4-methyl-2-(piperidin-1-yl)phenyl](5-methylfuran-2-yl)methyl}acetamide] has a melting point of 87 °C. Molecule `Cc1ccc(C(NC(=O)C2(c3ccc4[nH]ccc4c3)CC2)c2ccc(C)o2)c(C)c1` (centres unmarked) (as salt: HCl) [Cpd. 108, N-[(2,4-dimethylphenyl)(5-methylfuran-2-yl)methyl]-1-(1H-indol-5-yl)cyclopropane-1-carboxamide] has a melting point of 62 °C. For `Cc1ccc(C(NC(=O)C2(c3ccc4c(c3)CS(=O)(=O)N4CC3CCOCC3)CC2)c2ccc(C)o2)c(N2CCCCC2)c1` (centres unmarked) (as salt: HCl) [Cpd. 162, N-{[4-methyl-2-(piperidin-1-yl)phenyl](5-methylfuran-2-yl)methyl}-1-[1-(oxan-4-ylmethyl)-2,2-dioxo-1,3-dihydro-2,1-benzothiazol-5-yl]cyclopropane-1-carboxamide], the melting point was 87 °C. `Cc1ccc(C(NC(=O)C2(c3ccc4c(c3)OCS(=O)(=O)N4)CC2)c2ccc(C)o2)c(N(C)C)c1` (centres unmarked) (as salt: HCl) [Cpd. 148, N-{[2-(dimethylamino)-4-methylphenyl](5-methylfuran-2-yl)methyl}-1-(2,2-dioxo-1,3-dihydro-4,2,1-benzoxathiazin-6-yl)cyclopropane-1-carboxamide] showed a melting point of 105 °C. Molecule `Cc1ccc(C(NC(=O)C2(c3ccc4c(c3)OCC(=O)N4)CC2)c2ccc(Cl)cc2)c(C)c1` (centres unmarked) (as salt: HCl) [Cpd. 140, N-[(4-chlorophenyl)(2,4-dimethylphenyl)methyl]-1-(3-oxo-3,4-dihydro-2H-1,4-benzoxazin-7-yl)cyclopropane-1-carboxamide] has a melting point of 99 °C. `CC(=O)N1Cc2ccc(C3(C(=O)NC(c4ccc(C)o4)c4ccc(C)cc4C)CC3)cc2C1` (centres unmarked) (as salt: HCl) [Cpd. 127, 1-(2-acetyl-2,3-dihydro-1H-isoindol-5-yl)-N-[(2,4-dimethylphenyl)(5-methylfuran-2-yl)methyl]cyclopropane-1-carboxamide] gave a melting point of 72 °C. Molecule `Cc1ccc(C(NC(=O)Cc2ccc3[nH]cc(C)c3c2)c2ccc(C)o2)c(N2CCCCC2)c1` (centres unmarked) (as salt: HCl) [Cpd. 64, 2-(3-methyl-1H-indol-5-yl)-N-{[4-methyl-2-(piperidin-1-yl)phenyl](5-methylfuran-2-yl)methyl}acetamide] has a melting point of 68 °C. For `Cc1ccc(C(NC(=O)C2(c3ccc4c(n3)OCC(=O)N4)CC2)c2ccc(C)o2)c(C)c1` (centres unmarked) (as salt: HCl) [Cpd. 144, N-[(2,4-dimethylphenyl)(5-methylfuran-2-yl)methyl]-1-{2-oxo-1H,2H,3H-pyrido[2,3-b][1,4]oxazin-6-yl}cyclopropane-1-carboxamide], the melting point was 84 °C. With `Cc1ccc(C(NC(=O)C2(c3ccc4[nH]cc(CCO)c4c3)CC2)c2ccc(Cl)o2)c(C)c1` (centres unmarked) (as salt: HCl) [Cpd. 62, N-[(5-chlorofuran-2-yl)(2,4-dimethylphenyl)methyl]-1-[3-(2-hydroxyethyl)-1H-indol-5-yl]cyclopropane-1-carboxamide] the melting point was 70 °C. `Cc1ccc(C(NC(=O)C2(c3ccc4[nH]cc(CCO)c4c3)CC2)c2ccc(C)o2)c(N2CCCCC2)c1` (centres unmarked) (as salt: HCl) [Cpd. 66, 1-[3-(2-hydroxyethyl)-1H-indol-5-yl]-N-{[4-methyl-2-(piperidin-1-yl)phenyl](5-methylfuran-2-yl)methyl}cyclopropane-1-carboxamide] gave a melting point of 95 °C. Molecule `Cc1ccc(C(NC(=O)C2(c3ccc4c(c3)C(C)(C)C(=O)N4)CC2)c2ccc(C)o2)c(C)c1` (centres unmarked) (as salt: HCl) [Cpd. 146, 1-(3,3-dimethyl-2-oxo-2,3-dihydro-1H-indol-5-yl)-N-[(2,4-dimethylphenyl)(5-methylfuran-2-yl)methyl]cyclopropane-1-carboxamide] has a melting point of 82 °C. In the case of `Cc1ccc(C(NC(=O)C2(c3ccc4c(c3)CS(=O)(=O)N4C)CC2)c2ccc(C)o2)c(C)c1` (centres unmarked) (as salt: HCl) [Cpd. 70, N-[(2,4-dimethylphenyl)(5-methylfuran-2-yl)methyl]-1-(1-methyl-2,2-dioxo-1,3-dihydro-2,1-benzothiazol-5-yl)cyclopropane-1-carboxamide], the melting point is reported as 70 °C. `Cc1ccc(C(NC(=O)Cc2ccc3[nH]cc(C(=O)CS(C)(=O)=O)c3c2)c2ccc(C)o2)c(Br)c1` (centres unmarked) (as salt: HCl) [Cpd. 104, N-[(2-bromo-4-methylphenyl)(5-methylfuran-2-yl)methyl]-2-[3-(2-methanesulfonylacetyl)-1H-indol-5-yl]acetamide] showed a melting point of 206 °C. In the case of `Cc1ccc(C(NC(=O)Cc2ccc3c(ccn3S(C)(=O)=O)c2)c2ccc(C)o2)c(N2CCCCC2)c1` (centres unmarked) (as salt: ammonium) [Cpd. 106, 2-(1-methanesulfonyl-1H-indol-5-yl)-N-{[4-methyl-2-(piperidin-1-yl)phenyl](5-methylfuran-2-yl)methyl}acetamide], the melting point is reported as 83 °C. `COc1ccc(C(NC(=O)Cc2ccc3c(ccn3CCC(=O)OC(C)(C)C)c2)c2ccc(C)o2)c(N2CCCCCC2)c1` (centres unmarked) (as salt: HCl) [Cpd. 110, tert-butyl 3-{5-[({[2-(azepan-1-yl)-4-methoxyphenyl](5-methylfuran-2-yl)methyl}carbamoyl)methyl]-1H-indol-1-yl}propanoate] gave a melting point of 57 °C. For `Cc1ccc(C(NC(=O)C2(c3ccc4c(c3)OCS(=O)(=O)N4C)CC2)c2ccc(C)o2)c(Br)c1` (centres unmarked) (as salt: HCl) [Cpd. 173, N-[(2-bromo-4-methylphenyl)(5-methylfuran-2-yl)methyl]-1-(1-methyl-2,2-dioxo-1,3-dihydro-4,2,1-benzoxathiazin-6-yl)cyclopropane-1-carboxamide], the melting point was 71 °C. `CSc1ccc2cc(CC(=O)NC(c3ccc(C)o3)c3ccc(C)cc3N3CCCCC3)ccc2c1` (centres unmarked) (as salt: HCl) [Cpd. 91, N-{[4-methyl-2-(piperidin-1-yl)phenyl](5-methylfuran-2-yl)methyl}-2-[6-(methylsulfanyl)naphthalen-2-yl]acetamide] showed a melting point of 134 °C. `Cc1ccc(C(NC(=O)C2(c3ccc4c(c3)CCN4C(=O)C3CC3)CC2)c2ccc(C)o2)c(C)c1` (centres unmarked) (as salt: HCl) [Cpd. 95, 1-(1-cyclopropanecarbonyl-2,3-dihydro-1H-indol-5-yl)-N-[(2,4-dimethylphenyl)(5-methylfuran-2-yl)methyl]cyclopropane-1-carboxamide] showed a melting point of 70 °C. In the case of `Cc1ccc(C(NC(=O)C2(c3ccc4c(c3)CS(=O)(=O)C4)CC2)c2ccc(Cl)o2)c(C)c1` (centres unmarked) (as salt: HCl) [Cpd. 72, N-[(5-chlorofuran-2-yl)(2,4-dimethylphenyl)methyl]-1-(2,2-dioxo-1,3-dihydro-2-benzothiophen-5-yl)cyclopropane-1-carboxamide], the melting point is reported as 80 °C.
